In assay [1] the test system is lipoperoxide production in rat cerebral tissues. Nature of the assay: Inhibition of lipoperoxide production in rat cerebral tissues (TBA reaction in cerebral tissue homogenate). The assay is classed as biochemical. As to conditions: 37° C., 120 minutes, test concentrations 10, 1, 0.1, 0.01, 0.001 μg/ml, absorbance 535 nm, least square method. The protocol:
Inhibition of lipoperoxide production in rat cerebral tissues
(1) Preparation of cerebral tissue homogenate
A rat was slaughtered with carbon dioxide, and immediately after blood sampling from the heart, brain was removed and weighed. A 5% (w/v) tissue homogenate was prepared by a homogenizer with PBS (pH 7.3). Homogenation was conducted two times for 15 seconds (scale 10) while cooling.
(2) Inhibition of lipoperoxide production in rat cerebral 4issues.
Each of the test drugs (50 μl, concentration 10, 1, 0.1, 0.01, 0.001 μg/ml) was placed in a polypropylene tube, to which was added cerebral tissue homogenate (1 ml), followed by incubation at 37° C. in a thermobath for 120 minutes. Thereafter, 1% phosphoric acid (0.3 ml), 10% phosphotungstic acid (0.2 ml) and 0.67% TBA (tiobarbituric acid) agent (1 ml) were added thereto while stirring as necessary, and immediately thereafter, TBA reaction was conducted in a boiling water bath for 20 minutes. The mixture was cooled in ice water for 5 minutes, and added with n-butanol (4 ml). After 10 minutes' shaking extraction, it was centrifuged at 3000 rpm and at room temperature (low temperature causes change of absorbance) for 10 minutes. The absorbance of the butanol layer (upper layer) was measured at a wavelength of 535 nm. The difference between the absorbance of the control incubated at 37° C. (added with dimethylsulfoxide only) and that of the control cooled at 2° C. (added with dimethylsulfoxide only) was taken as the amount of 100% lipoperoxide production, and the percent suppression of the drug was calculated from the following formula. [formula] wherein A is the difference of absorbance of 37° C. control and 2° C. control, and B is the difference of absorbance of a drug sample and 2° C. control. The IC50 (μg/ml) was calculated by least square method using the percent inhibition at each concentration.

The subject of assay [2] is TPA-induced mouse ear edema. Nature of the assay: Effect on TPA-induced mouse ear edema test. The format is in vivo, male ICR mice. As to conditions: inhibition of ear edema (ear weight difference) vs control; TPA 1 μg/20 μl, topical; drug dissolved in TPA solution (100 μg/20 ml); 5 hours. The protocol: Effect on TPA-induced mouse ear edema test
Male ICR mice weighing about 20 g were etherized, and fixed at the dorsal position. TPA (12-O-tetradecanoylphorbol-13-acetate: phorbol 12-myristate-13-acetate, 1 μg/20 μl) dissolved in a mixed solution of acetone: pyridine: water (97:2:1) was coated on the left year while drying with a dryer. Five hours later, the mice were slaughtered by vertebral dislocation. The both ears were stamped out with a circle chisel (punch), and weighed. The weight difference between the both ears was taken as an index of the degree of edema, and the percent inhibition was calculated from the comparison with the control. Each drug was dissolved in TPA solution (100 μg/20 ml).

Converted amounts (≈) assume the structure as drawn.

As usually defined, the IC50 is the concentration that gives 50% inhibition. A high value points to lower potency.

In the case of `CN(C)CCOC(c1ccc(Cl)cc1)c1ccc(O)c(N(C)C)c1` (stereo not drawn) [Compound 1, 2-[1-(4-chlorophenyl)-1-(3-dimethylamino-4-hydroxyphenyl)methoxy]-N,N-dimethylethanamine], in assay [1], the half-inhibitory concentration (IC50) stood at 0.39 µg/mL (≈ 1.12 µM). As for `CN1CCN(C(c2ccc(Cl)cc2)c2ccc(O)c(N(C)C)c2)CC1` (stereo not drawn) [Compound 3, 4-[1-(4-chlorophenyl)-1-(4-methylpiperazino)]methyl-2-dimethylaminophenol], the “Inhibition (%)” value in assay [2] was 71.1%. Take `CN(C)CCN(Cc1ccc(O)c(N(C)C)c1)c1ccccc1` [Compound 4, 2-dimethylamino-4-[N-(2-dimethylaminoethyl)-N-phenyl]aminomethylphenol]: the “Inhibition (%)” value in assay [2] was 75.0%.

With `CN(C)CC=C(c1ccc(Cl)cc1)c1ccc(O)c(N(C)C)c1` [Compound 5, 1-(4-chlorophenyl)-3-dimethylamino-1-(3-dimethylamine-4-hydroxyphenyl)-1-propene], in assay [1], the half-inhibitory concentration (IC50) was determined as 0.20 µg/mL (≈ 0.604 µM). Also, the “Inhibition (%)” value in assay [2] amounted to 75.0%. For `CN(C)CCC(c1ccc(Cl)cc1)c1ccc(O)c(N(C)C)c1` (stereo not drawn) [Compound 6, 4-[1-(4-chlorophenyl)-3-dimethylaminopropyl]-2-dimethylaminophenol] the same measures were 0.31 µg/mL (≈ 0.931 µM) and 62.7%. In assay [1], `CN(C)c1cc(CN2CCN(C(c3ccccc3)c3ccc(Cl)cc3)CC2)ccc1O` (stereo not drawn) [Compound 7, 4-[4-(4-chlorobenzhydryl)piperazino]methyl-2-dimethylaminophenol] showed an IC50 of 0.16 µg/mL (≈ 0.367 µM). For the same compound, the “Inhibition (%)” value in assay [2] stood at 54.6%. Regarding `Cc1ccc(O)c(N(C)CCOC(c2ccccc2)c2ccccc2)c1` [Compound 10], the half-inhibitory concentration (IC50) in assay [1] amounted to 0.23 µg/mL (≈ 0.662 µM). Turning to `Cc1ccc(O)c(NC(C)CN2c3ccccc3Sc3ccccc32)c1` (stereo not drawn) [Compound 12, 2-[1-methyl-2-(phenothiazine-10-yl)ethyl]amino-4-methylphenol], the IC50 in assay [1] stood at 0.086 µg/mL (≈ 0.237 µM). Besides, the “Inhibition (%)” value in assay [2] is reported as 74.7%. On the same counts, the results for `Cc1ccc(O)c(NCCCN2CCN(C(c3ccccc3)c3ccccc3)CC2)c1` [Compound 14, 2-[3-(4-benzhydrylpiperazino)propyl]amino-4-methylphenol] are 0.038 µg/mL (≈ 0.0914 µM) and 77.8%. The compound `Cc1ccc(O)c(NCCCN2CCN(C(c3ccccc3)c3ccc(Cl)cc3)CC2)c1` (stereo not drawn) [Compound 15, 2-[3-[4-(4-chlorobenzhydryl)piperazino]propyl]amino-4-methylphenol] returned an IC50 in assay [1] of 0.12 µg/mL (≈ 0.267 µM). For the same compound, the “Inhibition (%)” value in assay [2] is listed as 86.7%. In assay [1], `Cc1ccc(O)c(N(C)CCCN2CCN(C(c3ccccc3)c3ccccc3)CC2)c1` [Compound 16, 2-[N-[3-(4-benzhydrylpiperazino)propyl]-N-methyl]amino-4-methylphenol] yielded a half-maximal inhibitory concentration (IC50) of 0.30 µg/mL (≈ 0.698 µM). Also, the “Inhibition (%)” value in assay [2] is 50.9%. `Cc1ccc(O)c(NCCCN2CCCN(C(c3ccccc3)c3ccc(Cl)cc3)CC2)c1` (stereo not drawn) [Compound 17, 2-[3-[4-(4-chlorobenzhydryl)homopiperazino)propyl]amino-4-methylphenol] had an IC50 in assay [1] of 0.013 µg/mL (≈ 0.028 µM). For the same compound, the “Inhibition (%)” value in assay [2] is 87.0%.

As for `Cc1ccc(O)c(NCCCN2CCC(C(O)(c3ccccc3)c3ccccc3)CC2)c1` [Compound 18, 2-[3-(4-hydroxydiphenylmethyl-1-piperidinyl)propyl]amino-4methylphenol], the IC50 in assay [1] stood at 0.029 µg/mL (≈ 0.0673 µM). In assay [2], the “Inhibition (%)” value is 89.0%.

`Cc1ccc(O)c(NCCCN2CCC(OC(c3ccccc3)c3ccccc3)CC2)c1` [Compound 19, 2-[3-(4-benzhydryloxy-1-piperidinyl)propyl]amino-4-methylphenol] came in with an IC50 in assay [1] of 0.036 µg/mL (≈ 0.0836 µM). Further, in assay [2], the “Inhibition (%)” value amounted to 85.5%.

Turning to `Cc1cc(NCCCN2CCN(C(c3ccccc3)c3ccc(Cl)cc3)CC2)c(O)c(C(C)(C)C)c1` (stereo not drawn) [Compound 20, 6-tert-butyl-2-[3-[4-(4-chlorobenzhydryl)piperazino]propyl]amino-4-methylphenol], the IC50 in assay [1] was 0.066 µg/mL (≈ 0.13 µM). Further, the “Inhibition (%)” value in assay [2] came to 63.8%. For the compound `Cc1ccc(O)c(N(CCCN2CCN(C(c3ccccc3)c3ccc(Cl)cc3)CC2)C(C)C)c1` (stereo not drawn) [Compound 21, 2-[N-[3-[4-(4-chlorobenzhydryl)piperazino]propyl]-N-isopropyl]amino-4-methylphenol], in assay [1], the IC50 came out at 0.44 µg/mL (≈ 0.894 µM). For the same compound, in assay [2], the “Inhibition (%)” value was 44.4%. Regarding `Cc1ccc(O)c(N(CCCN2CCC(C(O)(c3ccccc3)c3ccccc3)CC2)C(C)C)c1` [Compound 23, 2-[N-[3-(4-hydroxydiphenylmethyl-1-piperidinyl)propyl]-N-isopropyl]amino-4-methylphenol], the IC50 in assay [1] amounted to 0.79 µg/mL (≈ 1.67 µM). Further, the “Inhibition (%)” value in assay [2] is given as 39.2%. For the compound `Cc1ccc(O)c(NCCCN2CCC(C(O)(c3ccccc3)c3ccc(Cl)cc3)CC2)c1` (stereo not drawn) [Compound 26, 2-[3-[4-(4-chlorophenyl)hydroxyphenylmethyl-1-piperidinyl]propyl]amino-4-methylphenol], in assay [2], the “Inhibition (%)” value came to 97.5%. With `Cc1ccc(O)c(NCCCN2CCN(C(c3ccc(F)cc3)c3ccc(F)cc3)CC2)c1` [Compound 32, 2-[3-[4-(4,4'-difluorobenzhydryl)piperazino]propyl]amino-4-methylphenol], the IC50 in assay [1] came out at 0.10 µg/mL (≈ 0.221 µM). For the same compound, the “Inhibition (%)” value in assay [2] turned out to be 64.1%.

Values taken from US5308840A, “Substituted or unsubstituted benzhydryl heteroalkyl-substituted aminophenol compounds and pharmaceutical compositions thereof” (Green Cross Corporation, priority 1991, dated 1994).
